According to publication PMC5526551, “New hydrazonoindolin-2-ones: Synthesis, exploration of the possible anti-proliferative mechanism of action and encapsulation into PLGA microspheres” (PLoS ONE, 2017):
Where two headings read alike, the source gives them in different places.

Assays:
NCI-H69AR = assay: Growth inhibition in multidrug resistant lung cancer cell line; assay type: cell-based; settings: 72 h, maximum 25 μM
Procedure: Compound 7e was analyzed for cancer cell growth inhibitory activity in a sensitive NSCLC cell line (A549) and a multidrug resistant lung cancer cell line (NCI-H69AR) which expresses the ABCC1 efflux pump protein. This assessment of activity tested compounds in quadruplicate at a maximum concentration of 25 μM, followed by 10 serially diluted concentrations.
A549 and H69AR cells were harvested from 90-95% confluent 10 cm dishes, and diluted in growth media. An appropriate concentration of cells was prepared to add 1,250 cells in a volume of 25 µL per well in tissue culture treated BD 384-well microplates, then incubated overnight at 37 °C.
Compound 7e was diluted to a concentration of 25 µM in DMSO. Concentrated dosing solutions (double the final concentration) were prepared by dilution of the DMSO stocks 1:500 in growth medium. Two-fold serial dilutions were then prepared in medium containing 0.2% DMSO to maintain a constant concentration of vehicle throughout the concentration range of the compound. Each of these was added in equal volume (25 µL), to four wells on each cell assay plate, along with the vehicle control. The highest concentration for serial dilution of the positive control compound sunitinib was prepared exactly as the experimental compound 7e. Cells were incubated at 37°C with the compounds for a further 72 h. At the end of the treatment period, assay plates were allowed to cool to RT for 10 min prior to addition of 25 µL per well Promega CellTiterGlo reagent, followed by an additional 10 min incubation at RT. The resulting luminescence was quantitated using a Molecular Devices Spectramax Paradigm.
Percent growth inhibition was calculated using equation (1). The potency of compounds was determined using the non-linear dose response algorithm (four-parameter logistic fit) with GraphPad Prism 5 software.

MCF-10A = assay: Selectivity: growth inhibition in non-tumorigenic cell line; assay type: cell-based, human; settings: 72 h, maximum 25 μM, read-out: IC50 Breast MCF-10A
Procedure: (§1) This assessment of the growth inhibitory activity of the compounds was tested in quadruplicate at a maximum concentration of 25 μM, followed by 10 serially diluted concentrations.
A549, IEC-6, MCF-10A and 3t3 cells were harvested from 90-95% confluent cultures in 10 cm dishes, and diluted in growth media recommended by the suppliers as follows: A549 cells were cultured in RPMI-1640 medium supplemented with 5% fetal bovine serum (FBS). IEC-6 cells were obtained from ATCC and cultured in Dulbecco’s modified Eagle’s medium (DMEM) supplemented with 10% FBS and 0.1 unit/mL recombinant insulin. Swiss 3t3 cells were obtained from ATCC and cultured in DMEM supplemented with 10% FBS. MCF-10Acells were obtained from ATCC and cultured in a mixture DMEM and F12 media supplemented with 5% fetal bovine serum (FBS), 20 ng/mL recombinant epidermal growth factor, 10 µg/mL insulin, 0.5 µg/mL hydrocortisone and 100 ng/mL cholera toxin. An appropriate concentration of cells was prepared to add 1,250 cells in a volume of 25 µL per well in tissue culture treated BD 384-well microplates, then incubated overnight at 37 °C.
Compound 7e and the positive control, sunitinib, were diluted to a concentration of 25 µM in DMSO. Concentrated dosing solutions (double the final concentration) were prepared by dilution of the DMSO stocks 1:500 in growth medium. Two-fold serial dilutions were then prepared in medium containing 0.2% DMSO to maintain a constant concentration of vehicle throughout the concentration range of the compound. […]
(§2) At the end of the treatment period, assay plates were allowed to cool to RT for 10 min prior to addition of 25 µL per well Promega CellTiterGlo reagent, followed by an additional 10 min incubation at RT. The resulting luminescence was quantitated using a Molecular Devices Spectramax Paradigm.Percent growth inhibition was calculated using equation (1). The potency of compounds was determined using the non-linear dose response algorithm (four-parameter logistic fit) with GraphPad Prism 5 software.

Swiss 3t3 fibroblasts = assay: as above; assay type: cell-based, mice; settings: Mus musculus, 72 h, maximum 25 μM, read-out: IC50 Fibroblast Swiss 3t3
Procedure: as §1
A549, IEC-6, MCF-10A and 3t3 cells were harvested from 90-95% confluent cultures in 10 cm dishes, and diluted in growth media recommended by the suppliers as follows: A549 cells were cultured in RPMI-1640 medium supplemented with 5% fetal bovine serum (FBS). IEC-6 cells were obtained from ATCC and cultured in Dulbecco’s modified Eagle’s medium (DMEM) supplemented with 10% FBS and 0.1 unit/mL recombinant insulin. Swiss 3t3 cells were obtained from ATCC and cultured in DMEM supplemented with 10% FBS. […]
as §2

Q: `O=C1Nc2ccc(Br)cc2C1=NN=C1C(=O)N(Cc2ccccc2)c2ccccc21` [Compound 7e, 1-Benzyl-3-((5-bromo-2-oxoindolin-3-ylidene)hydrazono)indolin-2-one] was tested. Which IC50 (NCI-H69AR) did it give?
A: Its IC50 is 12.7 µM.

Q: And the IC50 (NCI-H69AR; NCI-H69AR)?
A: The IC50 was 12.7 µM.

Q: And the IC50 (MCF-10A)?
A: Its IC50 is 1.75 µM.

Q: What about the IC50 (MCF-10A; Homo sapiens, MCF-10A) of the same compound?
A: The IC50 was 1.76 µM.

Q: And the IC50 (Swiss 3t3 fibroblasts)?
A: The IC50 was 2.56 µM.

Q: With `CCN(CC)CCNC(=O)c1c(C)[nH]c(/C=C2\C(=O)Nc3ccc(F)cc32)c1C` [Sunitinib, sunitinib, reference compound] as the compound, how does the IC50 (NCI-H69AR) read?
A: Its IC50 is 5.8 µM.

Q: And the IC50 (NCI-H69AR; NCI-H69AR)?
A: The IC50 was 5.83 µM.

Q: And the IC50 (MCF-10A; Homo sapiens, MCF-10A)?
A: The IC50 was 4.43 µM.

Q: And the IC50 (Swiss 3t3 fibroblasts)?
A: Its IC50 is 4.07 µM.
